Source: patent publication US20170190671A1, “BIS(ARYL)CATECHOL DERIVATIVES AS HERBICIDES” (E I DU PONT DE NEMOURS AND COMPANY, priority 2014, published 2017)

Key:
Format in all cases: in vivo
Details in all cases: scale 0 to 100
[1] = test system: pigweed (Amaranthus retroflexus); assay: Test D postemergence
Description: (§1) Seeds of plant species selected from bluegrass (annual bluegrass, Poa annua), blackgrass (Alopecurus myosuroides), canarygrass (Phalaris minor), chickweed (common chickweed, Stellaria media), cutleaf geranium (Geranium dissectum), galium (catchweed bedstraw, Galium aparine), downy bromegrass (Bromus tectorum), field poppy (Papaver rhoeas), field violet (Viola arvensis), green foxtail (Setaria viridis), deadnettle (henbit deadnettle, Lamium amplexicaule), Italian ryegrass (Lolium multiflorum), kochia (Kochia scoparia), lambsquarters (Chenopodium album), oilseed rape (Brassica napus), pigweed (Amaranthus retroflexus), chamomile (scentless chamomile, Matricaria inodora), Russian thistle (Salsola kali), speedwell (bird's-eye speedwell, Veronica persica), spring barley (Hordeum vulgare), spring wheat (Triticum aestivum), wild buckwheat (Polygonum convolvulus), wild mustard (Sinapis arvensis), wild oat (Avenafatua), wild radish (Raphanus raphanistrum), windgrass (Apera spica-venti), winter barley (Hordeum vulgare), and winter wheat (Triticum aestivum) were planted into a silt loam soil and treated preemergence with test chemicals formulated in a non-phytotoxic solvent mixture which included a surfactant.
(§2) At the same time, these species were planted in pots containing Redi-Earth® planting medium (Scotts Company, 14111 Scottslawn Road, Marysville, Ohio 43041) comprising spaghnum peat moss, vermiculite, wetting agent and starter nutrients and treated with postemergence applications of the test chemicals formulated in the same manner. Plants ranged in height from 2 to 18 cm (1- to 4-leaf stage). Treated plants and controls were maintained in a controlled growth environment for 14 to 21 days after which time all species were compared to controls and visually evaluated. Plant response ratings, summarized in Table D, are based on a scale of 0 to 100 where 0 is no effect and 100 is complete control. A dash (-) response means no test result.

[2] = test system: spring barley (Hordeum vulgare); assay: Test D postemergence
Description: as §1, §2

[3] = test system: Russian thistle (Salsola kali); assay: Test D postemergence
Description: as §1, §2

[4] = test system: windgrass (Apera spica-venti); assay: Test D postemergence
Description: as §1, §2

[5] = test system: horseweed (Conyza canadensis); assay: Test E preemergence
Summary of the method: (§3)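 Visual ratings from 0 = no effect to 100 = complete control, scored against untreated controls after 14 to 21 days in the greenhouse. Compounds, in a non-phytotoxic solvent mix with surfactant, went onto silt loam soil right after sowing (preemergence) or onto 2–18 cm plants at the 1- to 4-leaf stage (postemergence).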

[6] = test system: wild poinsettia (Euphorbia heterophylla); assay: Test E preemergence
Summary of the method: as §3

[7] = test system: Italian ryegrass (Lolium multiflorum); assay: Test E postemergence
Description: (§4) Seeds of plant species selected from corn (Zea mays), soybean (Glycine max), velvetleaf (Abutilon theophrasti), cocklebur (common cocklebur, Xanthium strumarium), lambsquarters (Chenopodium album), wild poinsettia (Euphorbia heterophylla), palmer pigweed (Amaranthus palmeri), waterhemp (common waterhemp, Amaranthus rudis), surinam grass (Brachiaria decumbens), large (Lg) crabgrass (Digitaria sanguinalis), Brazilian crabgrass (Digitaria horizontalis), fall panicum (Panicum dichotomiflorum), giant foxtail (Setaria faberii), green foxtail (Setaria viridis), goosegrass (Eleusine indica), johnsongrass (Sorghum halepense), ragweed (common ragweed, Ambrosia elatior), barnyardgrass (Echinochloa crus-galli), sandbur (southern sandbur, Cenchrus echinatus), arrowleaf sida (Sida rhombifolia), Italian ryegrass (Lolium multiflorum), dayflower (Virginia (VA) dayflower, Commelina virginica), field bindweed (Convolvulus arvensis), morningglory (Ipomoea coccinea), nightshade (eastern black nightshade, Solanum ptycanthum), kochia (Kochia scoparia), yellow nutsedge (Cyperus esculentus), horseweed (Conyza canadensis), and hairy beggarticks (Bidens pilosa), were planted into a silt loam soil and treated preemergence with test chemicals formulated in a non-phytotoxic solvent mixture which included a surfactant.
(§5) At the same time, plants from these crop and weed species and also waterhemp_RES1, (ALS & Triazine resistant common waterhemp, Amaranthus rudis), and waterhemp_RES2, (ALS & HPPD resistant common waterhemp, Amaranthus rudis) were planted in pots containing Redi-Earth® planting medium (Scotts Company, 14111 Scottslawn Road, Marysville, Ohio 43041) comprising spaghnum peat moss, vermiculite, wetting agent and starter nutrients were treated with postemergence applications of test chemicals formulated in the same manner. Plants ranged in height from 2 to 18 cm for postemergence treatments (1- to 4-leaf stage). Treated plants and controls were maintained in a greenhouse for 14 to 21 days, after which time all species were compared to controls and visually evaluated. Plant response ratings, summarized in Table E, are based on a scale of 0 to 100 where 0 is no effect and 100 is complete control. A dash (-) response means no test result.

[8] = test system: hairy beggarticks (Bidens pilosa); assay: Test E postemergence
Description: as §4, §5

[9] = test system: palmer pigweed (Amaranthus palmeri); assay: Test E postemergence
Description: as §4, §5

[10] = test system: ragweed (common ragweed, Ambrosia elatior); assay: Test E postemergence
Description: as §4, §5

corn (Zea mays) = assay: Test E postemergence
Description: as §4, §5

[11] = test system: fall panicum (Panicum dichotomiflorum); assay: Test E postemergence
Description: as §4, §5

[12] = test system: field bindweed (Convolvulus arvensis); assay: Test E postemergence
Description: as §4, §5

[13] = test system: waterhemp_RES1 (ALS & Triazine resistant common waterhemp, Amaranthus rudis); assay: Test E postemergence
Description: as §4, §5

[14] = test system: johnsongrass (Sorghum halepense); assay: Test E preemergence
Summary of the method: as §3

## Fc1cnc(Oc2c(F)cccc2Oc2ncc(Cl)cn2)nc1 [Compound 23]
[1]; 16 g ai/ha
  Plant response rating, Pigweed: 55
[1]; 31 g ai/ha
  Plant response rating, Pigweed: 60
[1]; 62 g ai/ha
  Plant response rating, Pigweed: 70
[1]; 125 g ai/ha
  Plant response rating, Pigweed: 90
[2]; 16 g ai/ha
  Plant response rating, Barley, Spring: 0
[2]; 31 g ai/ha
  Plant response rating, Barley, Spring: 5
[2]; 62 g ai/ha
  Plant response rating, Barley, Spring: 5
[2]; 125 g ai/ha
  Plant response rating, Barley, Spring: 10
[3]; 16 g ai/ha
  Plant response rating, Russian Thistle: 0
[3]; 31 g ai/ha
  Plant response rating, Russian Thistle: 5
[3]; 62 g ai/ha
  Plant response rating, Russian Thistle: 10
[3]; 125 g ai/ha
  Plant response rating, Russian Thistle: 15
[4]; 16 g ai/ha
  Plant response rating, Windgrass: 10
[4]; 31 g ai/ha
  Plant response rating, Windgrass: 10
[4]; 62 g ai/ha
  Plant response rating, Windgrass: 15
[4]; 125 g ai/ha
  Plant response rating, Windgrass: 20

## FC(F)(F)c1cnc(Oc2c(Br)cccc2Oc2ncc(Cl)cn2)nc1 [Compound 24]
[1]; 16 g ai/ha
  Plant response rating, Pigweed: 85
[1]; 31 g ai/ha
  Plant response rating, Pigweed: 95
[1]; 62 g ai/ha
  Plant response rating, Pigweed: 98
[1]; 125 g ai/ha
  Plant response rating, Pigweed: 100
[2]; 16 g ai/ha
  Plant response rating, Barley, Spring: 15
[2]; 31 g ai/ha
  Plant response rating, Barley, Spring: 20
[2]; 62 g ai/ha
  Plant response rating, Barley, Spring: 20
[2]; 125 g ai/ha
  Plant response rating, Barley, Spring: 25
[3]; 16 g ai/ha
  Plant response rating, Russian Thistle: 10
[3]; 31 g ai/ha
  Plant response rating, Russian Thistle: 25
[3]; 62 g ai/ha
  Plant response rating, Russian Thistle: 30
[3]; 125 g ai/ha
  Plant response rating, Russian Thistle: 55
[4]; 16 g ai/ha
  Plant response rating, Windgrass: 10
[4]; 31 g ai/ha
  Plant response rating, Windgrass: 15
[4]; 62 g ai/ha
  Plant response rating, Windgrass: 25
[4]; 125 g ai/ha
  Plant response rating, Windgrass: 35

## Fc1ccc(F)c(Oc2ncc(Cl)cn2)c1Oc1ncc(Cl)cn1 [Compound 34, 2,2′-[(3,6-difluoro-1,2-phenylene)bis(oxy)]bis[5-chloropyrimidine]]
[5]; 16 g ai/ha
  Plant response rating, Horseweed: 0
[5]; 31 g ai/ha
  Plant response rating, Horseweed: 0
[5]; 62 g ai/ha
  Plant response rating, Horseweed: 0
[5]; 125 g ai/ha
  Plant response rating, Horseweed: 0
[6]; 16 g ai/ha
  Plant response rating, Poinsettia, Wild: 0
[6]; 31 g ai/ha
  Plant response rating, Poinsettia, Wild: 10
[6]; 62 g ai/ha
  Plant response rating, Poinsettia, Wild: 20
[6]; 125 g ai/ha
  Plant response rating, Poinsettia, Wild: 50

## N#Cc1cccc(Oc2ncc(Cl)cn2)c1Oc1ccc(Cl)cc1 [Compound 36]
[7]; 16 g ai/ha
  Plant response rating, Ryegrass, Italian: 10
[7]; 31 g ai/ha
  Plant response rating, Ryegrass, Italian: 15
[7]; 62 g ai/ha
  Plant response rating, Ryegrass, Italian: 10
[7]; 125 g ai/ha
  Plant response rating, Ryegrass, Italian: 30
[8]; 16 g ai/ha
  Plant response rating, Beggarticks: 30
[8]; 31 g ai/ha
  Plant response rating, Beggarticks: 35
[8]; 62 g ai/ha
  Plant response rating, Beggarticks: 30
[8]; 125 g ai/ha
  Plant response rating, Beggarticks: 40
[9]; 16 g ai/ha
  Plant response rating, Pigweed, Palmer: 75
[9]; 31 g ai/ha
  Plant response rating, Pigweed, Palmer: 85
[9]; 62 g ai/ha
  Plant response rating, Pigweed, Palmer: 85
[9]; 125 g ai/ha
  Plant response rating, Pigweed, Palmer: 85
[10]; 16 g ai/ha
  Plant response rating, Ragweed: 15
[10]; 31 g ai/ha
  Plant response rating, Ragweed: 25
[10]; 62 g ai/ha
  Plant response rating, Ragweed: 35
[10]; 125 g ai/ha
  Plant response rating, Ragweed: 50
Corn (Zea mays); 16 g ai/ha
  Plant response rating, Corn: 10
Corn (Zea mays); 31 g ai/ha
  Plant response rating, Corn: 20
Corn (Zea mays); 62 g ai/ha
  Plant response rating, Corn: 20
Corn (Zea mays); 125 g ai/ha
  Plant response rating, Corn: 25
[11]; 16 g ai/ha
  Plant response rating, Panicum, Fall: 20
[11]; 31 g ai/ha
  Plant response rating, Panicum, Fall: 25
[11]; 62 g ai/ha
  Plant response rating, Panicum, Fall: 15
[11]; 125 g ai/ha
  Plant response rating, Panicum, Fall: 25
[12]; 16 g ai/ha
  Plant response rating, Field Bindweed: 40
[12]; 31 g ai/ha
  Plant response rating, Field Bindweed: 50
[12]; 62 g ai/ha
  Plant response rating, Field Bindweed: 65
[12]; 125 g ai/ha
  Plant response rating, Field Bindweed: 85
[13]; 16 g ai/ha
  Plant response rating, Waterhemp_RES1: 98
[13]; 31 g ai/ha
  Plant response rating, Waterhemp_RES1: 95
[13]; 62 g ai/ha
  Plant response rating, Waterhemp_RES1: 95
[13]; 125 g ai/ha
  Plant response rating, Waterhemp_RES1: 100

## Fc1cccc(Oc2ncc(Cl)cn2)c1Oc1ncc(C(F)(F)F)cn1 [Compound 43, 5-chloro-2-[5-fluoro-6-[[5-(trifluoromethyl)-2-pyrimidinyl]oxy]phenoxy]pyrimidine]
[7]; 31 g ai/ha
  Plant response rating, Ryegrass, Italian: 0
[7]; 125 g ai/ha
  Plant response rating, Ryegrass, Italian: 20
[8]; 31 g ai/ha
  Plant response rating, Beggarticks: 50
[8]; 125 g ai/ha
  Plant response rating, Beggarticks: 60
[9]; 31 g ai/ha
  Plant response rating, Pigweed, Palmer: 80
[9]; 125 g ai/ha
  Plant response rating, Pigweed, Palmer: 90
[10]; 31 g ai/ha
  Plant response rating, Ragweed: 50
[10]; 125 g ai/ha
  Plant response rating, Ragweed: 60
Corn (Zea mays); 31 g ai/ha
  Plant response rating, Corn: 5
Corn (Zea mays); 125 g ai/ha
  Plant response rating, Corn: 15
[11]; 31 g ai/ha
  Plant response rating, Panicum, Fall: 40
[11]; 125 g ai/ha
  Plant response rating, Panicum, Fall: 50
[12]; 31 g ai/ha
  Plant response rating, Field Bindweed: 55
[12]; 125 g ai/ha
  Plant response rating, Field Bindweed: 70
[13]; 31 g ai/ha
  Plant response rating, Waterhemp_RES1: 65
[13]; 125 g ai/ha
  Plant response rating, Waterhemp_RES1: 80
[14]; 31 g ai/ha
  Plant response rating, Johnsongrass: 90
[14]; 125 g ai/ha
  Plant response rating, Johnsongrass: 100
[6]; 31 g ai/ha
  Plant response rating, Poinsettia, Wild: 65
[6]; 125 g ai/ha
  Plant response rating, Poinsettia, Wild: 100
